A word on the IC50: it is the midpoint of a concentration-inhibition curve.

The values that follow come from US11214578B2, “Urea/carbamates FAAH MAGL or dual FAAH/MAGL inhibitors and uses thereof” (Northeastern University, priority 2014, dated 2022).

Type in all cases: biochemical
In one assay the target is T1, Human MAGL (hMAGL) (Homo sapiens, UniProt Q99685).
T1 construct: hexahistidine; made in house; host or cells: E. coli
T1 sequence (Q99685 1-303): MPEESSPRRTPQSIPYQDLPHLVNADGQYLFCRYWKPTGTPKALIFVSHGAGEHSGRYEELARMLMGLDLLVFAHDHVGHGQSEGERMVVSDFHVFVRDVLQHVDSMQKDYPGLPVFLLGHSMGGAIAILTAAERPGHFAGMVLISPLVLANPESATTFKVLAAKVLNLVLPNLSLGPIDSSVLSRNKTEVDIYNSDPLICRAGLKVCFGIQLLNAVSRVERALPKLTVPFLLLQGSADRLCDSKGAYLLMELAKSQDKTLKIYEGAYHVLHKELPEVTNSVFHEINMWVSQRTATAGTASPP
As to the kind of experiment: Fluorescent assay protocol for hMAGL (AHMMCE substrate). Conditions: recombinant human MAGL, AHMMCE substrate, 15 min preincubation; read-out: IC50 hMAGL. The method, then: (§1) This medium throughput assay involved a 96-well plate format in which hMAGL activity was monitored by the hydrolysis of the substrate 7-hydroxy-6-methoxy-4-methylcoumarin ester (AHMMCE) to form the fluorescent product, coumarin. […] Upon the addition of AHMMCE, the reaction was incubated at 25° C. for 120 min; fluorescence readings were taken every 15 min at 360 nm/460 nm (λexcitation/λemission) using a Synergy HT Plate Reader (Bio-Tek, Winooski, Vt.). […] External standards were used to convert relative fluorescence units to the amount of 4-methylcoumarin formed. All MAGL assays were performed in triplicate for each inhibitor concentration, and IC50 values were calculated using Prizm software (GraphPad Software, Inc., San Diego, Calif.).

Another assay concerns the target T2, ΔTM rat FAAH (Rattus norvegicus, UniProt P97612).
T2 construct: Preparation of Transmembrane Domain-Deleted Rat FAAH (ΔTM rFAAH); made in house; host or cells: E. coli
T2 sequence (P97612 30-579 limits assumed): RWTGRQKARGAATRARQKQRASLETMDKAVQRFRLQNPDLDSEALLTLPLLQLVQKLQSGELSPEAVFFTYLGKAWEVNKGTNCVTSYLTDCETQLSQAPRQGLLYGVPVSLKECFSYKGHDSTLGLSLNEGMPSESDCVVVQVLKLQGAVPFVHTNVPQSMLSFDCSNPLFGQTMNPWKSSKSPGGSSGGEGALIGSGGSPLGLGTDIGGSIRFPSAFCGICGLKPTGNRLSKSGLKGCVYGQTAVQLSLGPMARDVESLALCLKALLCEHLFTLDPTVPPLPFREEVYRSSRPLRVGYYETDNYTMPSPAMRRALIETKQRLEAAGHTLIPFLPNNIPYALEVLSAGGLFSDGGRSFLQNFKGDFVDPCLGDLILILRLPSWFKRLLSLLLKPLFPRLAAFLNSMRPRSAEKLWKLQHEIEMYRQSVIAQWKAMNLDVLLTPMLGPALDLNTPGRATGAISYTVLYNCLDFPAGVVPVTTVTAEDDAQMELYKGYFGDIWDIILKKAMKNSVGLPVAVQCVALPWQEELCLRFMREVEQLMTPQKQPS
As to the kind of experiment: Fluorescent assay protocol for ΔTM rat FAAH (AAMCA substrate). The note with it: 15 min preincubation, read-out: IC50 rFAAH. The procedure: Procedure was followed as described for hMAGL, except that arachidonoyl-methyl coumarin amide (AAMCA) was used as fluorigenic substrate. […] For the screening assay, 3 concentrations (1 μM, 10 μM, and 100 μM) of test compounds, 15 μg of ΔTM rFAAH and assay buffer were pre-incubated for 15 min at 25° C. […] The fluorescence reading at the 3 hour time point (linear enzyme kinetics) was used to calculate percent inhibition based on control assays without inhibitor present. All FAAH assays were performed in triplicate for each inhibitor concentration, and IC50 values determined using Prizm software (GraphPad Software, Inc.).

A further assay has as its target T3, Rat MAGL (rMAGL) (Rattus norvegicus, UniProt Q8R431).
T3 construct: made in house; host or cells: E. coli
T3 sequence (Q8R431 1-303): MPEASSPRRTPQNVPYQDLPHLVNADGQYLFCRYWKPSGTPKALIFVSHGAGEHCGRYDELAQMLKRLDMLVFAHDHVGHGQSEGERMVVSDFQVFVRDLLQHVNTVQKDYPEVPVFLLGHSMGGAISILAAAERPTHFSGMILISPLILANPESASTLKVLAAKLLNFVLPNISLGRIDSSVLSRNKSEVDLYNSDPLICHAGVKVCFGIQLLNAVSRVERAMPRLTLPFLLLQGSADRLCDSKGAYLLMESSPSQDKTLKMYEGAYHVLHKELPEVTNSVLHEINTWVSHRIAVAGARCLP
Briefly: Fluorescent assay protocol for rMAGL. The note with it: recombinant rat MAGL, procedure as for hMAGL; read-out: IC50 rMAGL. The method, then: as §1
Procedure was followed as described for hMAGL.

The next assay addresses T4, Human FAAH (MBPΔTMhFAAH) (Homo sapiens, UniProt O00519).
T4 construct: made in house; host or cells: E. coli (pMALcE4 vector)
T4 sequence (O00519 30-579 limits assumed): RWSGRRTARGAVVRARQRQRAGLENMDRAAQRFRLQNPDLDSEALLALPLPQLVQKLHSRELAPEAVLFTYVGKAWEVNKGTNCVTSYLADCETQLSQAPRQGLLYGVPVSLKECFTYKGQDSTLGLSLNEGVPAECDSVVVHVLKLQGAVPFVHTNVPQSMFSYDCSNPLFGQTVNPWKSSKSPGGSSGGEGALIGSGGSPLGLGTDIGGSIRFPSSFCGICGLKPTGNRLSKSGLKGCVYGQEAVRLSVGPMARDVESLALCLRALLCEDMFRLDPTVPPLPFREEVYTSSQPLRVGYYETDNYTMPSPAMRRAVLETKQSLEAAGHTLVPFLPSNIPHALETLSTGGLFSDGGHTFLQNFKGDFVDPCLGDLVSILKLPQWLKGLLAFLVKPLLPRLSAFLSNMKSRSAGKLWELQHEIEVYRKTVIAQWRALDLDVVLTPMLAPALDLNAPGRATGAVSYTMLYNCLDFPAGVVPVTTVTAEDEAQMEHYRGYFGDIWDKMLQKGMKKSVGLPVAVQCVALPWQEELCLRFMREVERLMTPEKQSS
As to the kind of experiment: Fluorescent assay protocol for hFAAH. The note with it: human FAAH (MBP fusion, ΔTM), procedure as for rFAAH. The procedure: Human FAAH without putative transmembrane domain following maltose binding protein was expressed in E. coli cells using pMALcE4 vector Alapafuja et al J. Med. Chem. (2012) 55: 10074-89.
Procedure was followed as described for hMAGL, except that arachidonoyl-methyl coumarin amide (AAMCA) was used as fluorigenic substrate. Compounds were diluted in 50:50 DMSO/assay buffer (50 mM HEPES, 1 mM EDTA, 0.1% BSA, pH 7.4) so as to have a final DMSO concentration below 8% in each reaction. For the screening assay, 3 concentrations (1 μM, 10 μM, and 100 μM) of test compounds, 15 μg of ΔTM rFAAH and assay buffer were pre-incubated for 15 min at 25° C. AAMCA (20 μM, 2×Km) was added prior to incubation at 25° C. and kinetic fluorescence reading every 20 minutes (λex=360/λem=460) for 4 hours on a BioTek Synergy HT Microplate Reader (BioTek Instruments, Winooski, Vt.). The fluorescence reading at the 3 hour time point (linear enzyme kinetics) was used to calculate percent inhibition based on control assays without inhibitor present. All FAAH assays were performed in triplicate for each inhibitor concentration, and IC50 values determined using Prizm software (GraphPad Software, Inc.).
Procedure was followed as described for rFAAH.

Consider `C[C@H]1CN(C(=O)n2cnc(-c3ccccc3)c2)CCN1Cc1cccc(-c2ccccc2)c1` [Example 21, (S)-(4-([1,1′-biphenyl]-3-ylmethyl)-3-methylpiperazin-1-yl)(4-phenyl-1H-imidazol-1-yl)methanone], for which the IC50 at Human MAGL (hMAGL) was above 1000 nM; on ΔTM rat FAAH, 110 to 1000 nM; on Rat MAGL (rMAGL), above 1000 nM; at Human FAAH (MBPΔTMhFAAH), 110 to 1000 nM.
Regarding `C[C@H]1CN(Cc2cccc(Oc3ccccc3)c2)CCN1C(=O)n1cnc(Br)c1` [Example 22, (S)-(4-bromo-1H-imidazol-1-yl)(2-methyl-4-(3-phenoxybenzyl)piperazin-1-yl)methanone], the half-maximal inhibitory concentration (IC50) at Human MAGL (hMAGL) is above 1000 nM; on ΔTM rat FAAH, 110 to 1000 nM; at Rat MAGL (rMAGL), above 1000 nM; at Human FAAH (MBPΔTMhFAAH) it was 110 to 1000 nM.
Take `CC1CN(c2ccccc2)CCN1C(=O)n1cnc(-c2ccccc2)c1` (centres unmarked) [Example 23, (2-methyl-4-phenylpiperazin-1-yl)(4-phenyl-1H-imidazol-1-yl)methanone]: the half-inhibitory concentration (IC50) is above 1000 nM on Human MAGL (hMAGL), 10 to 100 nM at ΔTM rat FAAH, above 1000 nM at Rat MAGL (rMAGL) and 110 to 1000 nM at Human FAAH (MBPΔTMhFAAH).
In the case of `CC1CN(C(=O)n2cnc(-c3ccccc3)c2)CCN1c1ccccc1` (centres unmarked) [Example 24, (3-methyl-4-phenylpiperazin-1-yl)(4-phenyl-1H-imidazol-1-yl)methanone], the IC50 is above 1000 nM at Human MAGL (hMAGL), 10 to 100 nM at ΔTM rat FAAH, above 1000 nM on Rat MAGL (rMAGL) and 110 to 1000 nM on Human FAAH (MBPΔTMhFAAH).
With `Cc1ccc(N2CCN(C(=O)n3cnc(-c4ccccc4)c3)CC2C)cc1` (centres unmarked) [Example 25, (3-methyl-4-(p-tolyl)piperazin-1-yl)(4-phenyl-1H-imidazol-1-yl)methanone], the IC50 is above 1000 nM at Human MAGL (hMAGL), 10 to 100 nM on ΔTM rat FAAH, above 1000 nM on Rat MAGL (rMAGL) and 10 to 100 nM on Human FAAH (MBPΔTMhFAAH).
With `CC1CN(C(=O)n2cnc(-c3ccccc3)c2)CCN1c1cccc(OCc2ccccc2)c1` (centres unmarked) [Example 26, (4-(3-(benzyloxy)phenyl)-3-methylpiperazin-1-yl)(4-phenyl-1H-imidazol-1-yl)methanone], the IC50 was above 1000 nM on Human MAGL (hMAGL), 10 to 100 nM at ΔTM rat FAAH, above 1000 nM on Rat MAGL (rMAGL) and 110 to 1000 nM on Human FAAH (MBPΔTMhFAAH).
For the compound `CC1CN(C(=O)n2cnc(-c3ccccc3)c2)CCN1c1cccc(O)c1` (centres unmarked) [Example 27, (4-(3-hydroxyphenyl)-3-methylpiperazin-1-yl)(4-phenyl-1H-imidazol-1-yl)methanone], the IC50 is above 1000 nM on Human MAGL (hMAGL), 110 to 1000 nM on ΔTM rat FAAH, above 1000 nM at Rat MAGL (rMAGL) and 110 to 1000 nM at Human FAAH (MBPΔTMhFAAH).
In the case of `O=C(N1CCN(C(c2ccc(F)cc2)c2ccc(F)cc2)CC1)n1cnc(Br)c1` [Example 28, (4-(bis(4-fluorophenyl)methyl)piperazin-1-yl)(4-bromo-1H-imidazol-1-yl)methanone], the IC50 is above 1000 nM at Human MAGL (hMAGL), 110 to 1000 nM on ΔTM rat FAAH, above 1000 nM on Rat MAGL (rMAGL) and 110 to 1000 nM at Human FAAH (MBPΔTMhFAAH).
Turning to `O=C(N1CCN(C(c2ccc(F)cc2)c2ccc(F)cc2)CC1)n1cnc(-c2ccccc2)c1` [Example 29, (4-(bis(4-fluorophenyl)methyl)piperazin-1-yl)(4-phenyl-1H-imidazol-1-yl)methanone], the IC50 is above 1000 nM on Human MAGL (hMAGL), 110 to 1000 nM on ΔTM rat FAAH, above 1000 nM at Rat MAGL (rMAGL) and 110 to 1000 nM at Human FAAH (MBPΔTMhFAAH).
For the compound `O=C(N1CCN(C(c2ccccc2)c2ccccc2)CC1)n1cnc(-c2ccccc2)c1` [Example 30, (4-benzhydrylpiperazin-1-yl)(4-phenyl-1H-imidazol-1-yl)methanone], the IC50 on Human MAGL (hMAGL) was above 1000 nM; on ΔTM rat FAAH, above 1000 nM; at Rat MAGL (rMAGL), above 1000 nM; on Human FAAH (MBPΔTMhFAAH), 110 to 1000 nM.
For the compound `O=C(N1CCN(C(c2ccccc2)c2ccccc2)CC1)n1nnnc1Cc1ccccc1` [Example 31, (4-benzhydrylpiperazin-1-yl)(5-benzyl-1H-tetrazol-1-yl)methanone], the IC50 at Human MAGL (hMAGL) is above 1000 nM; on ΔTM rat FAAH, 10 to 100 nM; on Rat MAGL (rMAGL), above 1000 nM; at Human FAAH (MBPΔTMhFAAH), 10 to 100 nM.
In the case of `O=C(N1CCN(C(c2ccc(F)cc2)c2ccc(F)cc2)CC1)n1nnnc1Cc1ccccc1` [Example 32, (5-benzyl-1H-tetrazol-1-yl)(4-(bis(4-fluorophenyl)methyl)piperazin-1-yl)methanone], the concentration for half-maximal inhibition (IC50) on Human MAGL (hMAGL) is above 1000 nM; at ΔTM rat FAAH, 110 to 1000 nM; at Rat MAGL (rMAGL), above 1000 nM; on Human FAAH (MBPΔTMhFAAH) it was 110 to 1000 nM.
On to `COC(=O)c1ncn(C(=O)N2CCC(OC(c3ccc(F)cc3)c3ccc(F)cc3)CC2)n1` [Example 33, (3-(Carbomethoxy)-1H-1,2,4-triazol-1-yl)(4-(bis(4-fluorophenyl)methyoxy)pipe-ridin-1 yl)methanone], for which the IC50 on Human MAGL (hMAGL), at ΔTM rat FAAH, at Rat MAGL (rMAGL) and at Human FAAH (MBPΔTMhFAAH) was above 1000 nM throughout.
With `O=C1CC2(CCC(C(=O)n3cnc(Br)c3)CC2)Oc2ccccc21` (centres unmarked) [Example 34, 4′-(4-bromo-1H-imidazole-1-carbonyl)spiro[chromane-2,1′-cyclohexan]-4-one], the 50% inhibitory concentration (IC50) on Human MAGL (hMAGL) is above 1000 nM; on ΔTM rat FAAH, 10 to 100 nM; on Rat MAGL (rMAGL), above 1000 nM; on Human FAAH (MBPΔTMhFAAH) it was 10 to 100 nM.
